According to ChEMBL document CHEMBL1126532, “Excitatory amino acid receptor atagonists: synthesis and pharmacology of 3-(carboxymethoxy)isoxazoles derived from AMPA” (Bioorg Med Chem Lett, 1993):

Key:
Glutamate NMDA receptor = test: Binding affinity by measuring displacement of [3H]CPP from NMDA receptor in rat cortical slice preparation
[1] = biological target: Glutamate receptor ionotropic, AMPA (Rattus norvegicus, UniProt P19490+P19491+P19492+P19493); test: Binding affinity by measuring displacement of [3H]AMPA from Ionotropic glutamate receptor AMPA in rat cortical slice preparation
[2] = biological target: Glutamate receptor ionotropic, kainate; test: Binding affinity by measuring displacement of [3H]KAIN from Ionotropic glutamate receptor kainate in rat cortical slice preparation
[3] = biological target: Glutamate receptor ionotropic, AMPA (Rattus norvegicus) (UniProt P19491+P19492+P19493+P19490); test: Binding affinity by measuring displacement of [3H]AMPA from Ionotropic glutamate receptor AMPA in rat cortical slice preparation at 100 uM

C=C(C)[C@H]1CN[C@H](C(=O)O)[C@H]1CC(=O)O [KAINIC ACID]
IC50 (Glutamate NMDA receptor): > 100 µM

O=C(O)COc1noc2c1CC(C(=O)O)NC2 (configuration not stated)
IC50 [1]: > 100 µM
IC50 (Glutamate NMDA receptor): 16 µM
IC50 [2]: > 100 µM

Cc1onc(OCC(=O)O)c1CC(N)C(=O)O (configuration not stated)
IC50 [1]: 90 µM
IC50 (Glutamate NMDA receptor): > 100 µM
IC50 [2]: > 100 µM

Cc1o[nH]c(=O)c1C(N)C(=O)O (configuration not stated)
IC50 [1]: > 100 µM
IC50 (Glutamate NMDA receptor): 4.5 µM
IC50 [2]: > 100 µM

Cc1onc(OCC(=O)O)c1C(N)C(=O)O (configuration not stated)
IC50 [1]: > 100 µM
IC50 (Glutamate NMDA receptor): > 100 µM
IC50 [2]: > 100 µM

NC(Cc1c(OCC(=O)O)noc1C(F)(F)F)C(=O)O (configuration not stated)
IC50 [1]: > 100 µM
inhibition [3]: 40%
IC50 (Glutamate NMDA receptor): > 100 µM
IC50 [2]: > 100 µM
